# Data taken from patent publication US10508310B2, “Method of predicting a response to an anti-tumor treatment” (SORBONNE UNIVERSITE, priority 2013, dated 2019).
# What was measured:
# Format in all cases: in vivo, mice
# BC52 breast cancer PDX = assay: Tumor growth rate in BC52 patient-derived xenograft treated by DPT-C9h
# Method: (§1) Breast-cancer patient xenografts (PDXs) were obtained by direct implant of patient tumor fragments in immunocompromised mice. (Arrouss Et al, PlosOne. 2013. 8, e60816).
# (§2) Nine models treated by DPT-C9h (5 mg/kg/d IP, 5 days weekly, 4 to 6 weeks) were selected for the study, i.e. 7 breast cancer PDXs (BC11, BC52, BC143, BC146, BC173, BC227, and BC256), and 2 ovarian cancer PDXs (OV14 and OVM33). Three tumors of both control and treated groups were collected at the end of therapy, except for the BC146 for which 2 control tumors and 3 treated tumors were obtained. For each collected tumor, tumor volume was estimated according to the following formulae: V=a×b2/2, where a and b are the largest and the smallest perpendicular tumor diameters.
# (§3) In a second time, a median TGR was defined for the control and treated groups of each PDX model. Finally, a ratio was calculated for each PDX model, as: median TGR of the treated group/median TGR of the corresponding control group. The inventors considered that a model was responder to DPT-C9h if the ratio was ≤0.5 (p<0.05), and resistant if the ratio was ≥0.8. In this, 3 models were considered as responder (BC52, BC173 and OV14), 4 as resistant (BC11, BC146, BC227, and BC256), and 2 remained undefined and were excluded from analyses (BC143 and OVM33) (Table 1).
# BC143 breast cancer PDX = assay: Tumor growth rate in BC143 patient-derived xenograft treated by DPT-C9h
# Method: as §1, §2, §3
# BC173 breast cancer PDX = assay: Tumor growth rate in BC173 patient-derived xenograft treated by DPT-C9h
# Method: as §1, §2, §3
# BC256 breast cancer PDX = assay: Tumor growth rate in BC256 patient-derived xenograft treated by DPT-C9h
# Method: as §1, §2, §3
# BC11 breast cancer PDX = assay: Tumor growth rate in BC11 patient-derived xenograft treated by DPT-C9h
# Method: as §1, §2, §3
# OVM33 ovarian cancer PDX = assay: Tumor growth rate in OVM33 patient-derived xenograft treated by DPT-C9h
# Method: as §2, §3
# BC146 breast cancer PDX = assay: Tumor growth rate in BC146 patient-derived xenograft treated by DPT-C9h
# Method: as §1, §2, §3
# OV14 ovarian cancer PDX = assay: Tumor growth rate in OV14 patient-derived xenograft treated by DPT-C9h
# Method: as §2, §3
# BC227 breast cancer PDX = assay: Tumor growth rate in BC227 patient-derived xenograft treated by DPT-C9h
# Method: as §1, §2, §3
# [1] = TGR of treated group / TGR of control group
# [2] = TGR=Vf/V1, 5 mg/kg/d IP, 5 days weekly, 4 to 6 weeks, end of therapy
# [3] = responder if ratio ≤0.5 (p<0.05), resistant if ratio ≥0.8
substance,measurement,setting,value
VKKKKIKREIKI-YVETLDGIFEQWAHSEDL (VKKKKIKREIKIYVETLDGIFEQWAHSEDL; chimeric peptide) [DPT-C9h],Ratio TGR,BC52 breast cancer PDX; [1],0.38
same,Mean TGR DPT,BC52 breast cancer PDX; [2],15.3
same,conclusion (responder / resistant),BC52 breast cancer PDX; class from ratio TGR,+ (+: responder)
same,model response to DPT-C9h (in words),BC52 breast cancer PDX; [3],responder
same,Ratio TGR,BC143 breast cancer PDX; [1],0.68
same,Mean TGR DPT,BC143 breast cancer PDX; [2],27.7
same,conclusion (responder / resistant),BC143 breast cancer PDX; class from ratio TGR,ND (ND: unidentified)
same,model response to DPT-C9h (in words),BC143 breast cancer PDX; [3],undefined
same,Ratio TGR,BC173 breast cancer PDX; [1],0.45
same,Mean TGR DPT,BC173 breast cancer PDX; [2],6.0
same,conclusion (responder / resistant),BC173 breast cancer PDX; class from ratio TGR,+ (+: responder)
same,model response to DPT-C9h (in words),BC173 breast cancer PDX; [3],responder
same,Ratio TGR,BC256 breast cancer PDX; [1],1.23
same,Mean TGR DPT,BC256 breast cancer PDX; [2],38.7
same,conclusion (responder / resistant),BC256 breast cancer PDX; class from ratio TGR,− (−: resistant)
same,model response to DPT-C9h (in words),BC256 breast cancer PDX; [3],resistant
same,Ratio TGR,BC11 breast cancer PDX; [1],0.90
same,Mean TGR DPT,BC11 breast cancer PDX; [2],24.3
same,conclusion (responder / resistant),BC11 breast cancer PDX; class from ratio TGR,− (−: resistant)
same,model response to DPT-C9h (in words),BC11 breast cancer PDX; [3],resistant
same,Ratio TGR,OVM33 ovarian cancer PDX; [1],0.65
same,Mean TGR DPT,OVM33 ovarian cancer PDX; [2],35.0
same,conclusion (responder / resistant),OVM33 ovarian cancer PDX; class from ratio TGR,ND (ND: unidentified)
same,model response to DPT-C9h (in words),OVM33 ovarian cancer PDX; [3],undefined
same,Ratio TGR,BC146 breast cancer PDX; [1],0.96
same,Mean TGR DPT,BC146 breast cancer PDX; [2],34.7
same,conclusion (responder / resistant),BC146 breast cancer PDX; class from ratio TGR,− (−: resistant)
same,model response to DPT-C9h (in words),BC146 breast cancer PDX; [3],resistant
same,Ratio TGR,OV14 ovarian cancer PDX; [1],0.44
same,Mean TGR DPT,OV14 ovarian cancer PDX; [2],10.7
same,conclusion (responder / resistant),OV14 ovarian cancer PDX; class from ratio TGR,+ (+: responder)
same,model response to DPT-C9h (in words),OV14 ovarian cancer PDX; [3],responder
same,Ratio TGR,BC227 breast cancer PDX; [1],1.38
same,Mean TGR DPT,BC227 breast cancer PDX; [2],6.0
same,conclusion (responder / resistant),BC227 breast cancer PDX; class from ratio TGR,− (−: resistant)
same,model response to DPT-C9h (in words),BC227 breast cancer PDX; [3],resistant
